Reference: patent US5700804A, “Pharmaceutical compounds” (Xenova Limited, priority 1992, dated 1997)

Target: PAI-1 (Homo sapiens, UniProt P05121)
Test: PAI chromogenic substrate assay (first S2251 assay, tPA/plasminogen system)
Assay type: biochemical
Description: In this assay, a compound is incubated with PAI-1 prior to addition to the tPA assay system. Inhibition of PAI-1 results in the production of plasmin from plasminogen. In turn, plasmin cleaves the chromogenic substrate S2251 (Kabi Vitrum) producing pNA (p-nitroaniline) which is detected spectrophotometrically at 405 nm (K. Nilsson et al, Fibrinolysis (1987) 1, 163-168).
Compounds of formula (A) were tested in a PAI chromogenic substrate assay. In the first assay (K. Nilsson, Fibrinolysis (1987) 1, 163-168) each compound was incubated with PAI-1 prior to addition to the tPA assay system. […] In turn, the plasmin cleaved the chromogenic substrate S2251 (Kabi-Vitrum) producing pNA (p-nitroaniline) which was detected spectrophotometrically at 405 nm.

PAI-1, sequence (P05121 24-402): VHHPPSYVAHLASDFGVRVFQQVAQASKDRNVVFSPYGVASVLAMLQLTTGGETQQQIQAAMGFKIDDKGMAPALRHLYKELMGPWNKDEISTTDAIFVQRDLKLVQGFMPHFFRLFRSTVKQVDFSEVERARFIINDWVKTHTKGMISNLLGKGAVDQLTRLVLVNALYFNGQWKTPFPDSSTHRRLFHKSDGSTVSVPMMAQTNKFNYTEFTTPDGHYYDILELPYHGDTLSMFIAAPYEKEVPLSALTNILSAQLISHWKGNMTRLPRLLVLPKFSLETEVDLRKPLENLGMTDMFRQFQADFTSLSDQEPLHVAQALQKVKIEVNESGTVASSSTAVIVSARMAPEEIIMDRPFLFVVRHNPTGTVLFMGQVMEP

Inhibition of PAI-1 in the first S2251 chromogenic substrate assay (Concentration 25 μm) [%]	Inhibition of PAI-1 in the first S2251 chromogenic substrate assay (Concentration 50 μm) [%]	Inhibition of PAI-1 in the first S2251 chromogenic substrate assay (Concentration 100 μm) [%]	Inhibition of PAI-1 in the first S2251 chromogenic substrate assay (Concentration 12.5 μm) [%]	Inhibition of PAI-1 in the first S2251 chromogenic substrate assay (Concentration 6.25 μm) [%]	Inhibition of PAI-1 in the first S2251 chromogenic substrate assay (Concentration 7.5 μm) [%]	Inhibition of PAI-1 in the first S2251 chromogenic substrate assay (Concentration 15 μm) [%]	Inhibition of PAI-1 in the first S2251 chromogenic substrate assay (Concentration 30 μm) [%]	Inhibition of PAI-1 in the first S2251 chromogenic substrate assay (Concentration 60 μm) [%]	Inhibition of PAI-1 in the first S2251 chromogenic substrate assay (Concentration 3.75 μm) [%]	Compound
					24	76	77	72		CC(=O)Nc1ccc(/C=c2\[nH]c(=O)/c(=C/c3ccccc3)[nH]c2=O)cc1 [Compound 34, (3Z,6Z)-3-(4-Acetamidobenzylidene)-6-benzylidene-2,5-piperazinedione]
9	32	55	2							COc1ccc(/C=c2\[nH]c(=O)/c(=C/c3ccccc3Br)[nH]c2=O)cc1 [Compound 53, (3Z,6Z)-3-(2-Bromobenzylidene)-6-(4-methoxybenzylidene)-2,5-piperazinedione]
66	55	63	40	7						CN(C)c1ccc(/C=c2\[nH]c(=O)/c(=C/c3ccccc3)[nH]c2=O)c2ccccc12 [Compound 89]
8	35	70	9							COc1ccc(/C=c2\[nH]c(=O)/c(=C/c3ccc4ccccc4c3)[nH]c2=O)cc1 [Compound 27, (3Z,6Z)-3-(4-Methoxybenzylidene)-6-(2-naphthylmethylene)-2,5-piperazinedione]
5	23	66	2							Nc1ccc(/C=c2\[nH]c(=O)/c(=C/c3ccccc3)[nH]c2=O)cc1 [Compound 30, (3Z,6Z)-3-(4-Aminobenzylidene)-6-benzylidene-2,5-piperazinedione]
13	33	83	36							COC(=O)c1cccc(/C=c2\[nH]c(=O)/c(=C/c3ccccc3)[nH]c2=O)c1 [Compound 62, 3-((3Z,6Z)-6-Benzylidene-2,5-dioxopiperazin-3-ylidene)methylbenzoic acid, methyl ester]
33	85	75	6	0						COc1ccc(/C=c2\[nH]c(=O)/c(=C/c3ccccc3)[nH]c2=O)cc1OC [Compound 90, (3Z,6Z)-6-Benzylidene-3-(3,4-dimethoxybenzylidene)-2,5-piperazinedione]

The remaining lines, values behind:

Compound	Inhibition of PAI-1 in the first S2251 chromogenic substrate assay (Concentration 25 μm) [%]	Inhibition of PAI-1 in the first S2251 chromogenic substrate assay (Concentration 50 μm) [%]	Inhibition of PAI-1 in the first S2251 chromogenic substrate assay (Concentration 100 μm) [%]	Inhibition of PAI-1 in the first S2251 chromogenic substrate assay (Concentration 12.5 μm) [%]	Inhibition of PAI-1 in the first S2251 chromogenic substrate assay (Concentration 6.25 μm) [%]	Inhibition of PAI-1 in the first S2251 chromogenic substrate assay (Concentration 7.5 μm) [%]	Inhibition of PAI-1 in the first S2251 chromogenic substrate assay (Concentration 15 μm) [%]	Inhibition of PAI-1 in the first S2251 chromogenic substrate assay (Concentration 30 μm) [%]	Inhibition of PAI-1 in the first S2251 chromogenic substrate assay (Concentration 60 μm) [%]	Inhibition of PAI-1 in the first S2251 chromogenic substrate assay (Concentration 3.75 μm) [%]
COc1ccc(/C=c2\[nH]c(=O)/c(=C/c3ccc(O)cc3)[nH]c2=O)cc1 [Compound 36, (3Z,6Z)-3-(4-Hydroxybenzylidene)-6-(4-methoxybenzylidene)-2,5-piperazinedione]	1	6	71							
CC(C)(C)OC(=O)NCc1ccc(/C=c2\[nH]c(=O)/c(=C/c3ccccc3)[nH]c2=O)cc1 [Compound 66]	46	70	85	2						
O=c1[nH]/c(=C\c2cccc(O)c2)c(=O)[nH]/c1=C\c1ccccc1 [Compound 33, (3Z,6Z)-6-Benzylidene-3-(3-hydroxybenzylidene)-2,5-piperazinedione]	1	3	56	1	0					
CC(=O)Nc1ccc(/C=c2\[nH]c(=O)/c(=C/c3ccccc3F)[nH]c2=O)cc1 [Compound 71, (3Z,6Z)-3-(4-Acetamidobenzylidene)-6-(2-fluorobenzylidene)-2,5-piperazinedione]						1	51	64	52	1
O=c1[nH]/c(=C\c2ccccc2)c(=O)[nH]/c1=C\c1ccccc1 [Compound 45, (3Z,6Z)-3,6-Dibenzylidene-2,5-piperazinedione]	1	13	53	1						
CC(=O)Nc1ccc(/C=c2\[nH]c(=O)/c(=C/c3ccccc3Br)[nH]c2=O)cc1 [Compound 79, (3Z,6Z)-6-(4-Acetamidobenzylidene)-3-(2-bromobenzylidene)-2,5-piperazinedione]	27	55	42	2	1					
COC(=O)Nc1ccc(/C=c2\[nH]c(=O)/c(=C/c3ccc(OC)cc3)[nH]c2=O)cc1 [Compound 83, (3Z,6Z)-3-(4-Methoxybenzylidene)-6-(4-methoxycarbonylaminobenzylidene)-2,5-piperazinedione]	1	1	56	1						
CC(=O)Oc1cccc(/C=c2\[nH]c(=O)/c(=C/c3ccccc3)[nH]c2=O)c1 [Compound 31, (3Z,6Z)-3-(3-Acetoxybenzylidene)-6-benzylidene-2,5-piperazinedione]	2	12	58	1	0					
CC(=O)OCc1ccc(/C=c2\[nH]c(=O)/c(=C/c3ccccc3)[nH]c2=O)cc1 [Compound 43, (3Z,6Z)-3-(4-Acetoxymethylbenzylidene)-6-benzylidene-2,5-piperazinedione]	3	45	59	1	1					
O=c1[nH]/c(=C\c2cccc([N+](=O)[O-])c2)c(=O)[nH]/c1=C\c1ccccc1 [Compound 24, (3Z,6Z)-6-Benzylidene-3-(3-nitrobenzylidene)-2,5-piperazinedione]						0	0	29	56	0
O=c1[nH]/c(=C\c2ccc(O)cc2Cl)c(=O)[nH]/c1=C\c1ccccc1 [Compound 85, (3Z,6Z)-6-Benzylidene-3-(2-chloro-4-hydroxybenzylidene)-2,5-piperazinedione]	43	49	35	27	13					
O=c1[nH]/c(=C\c2cccc(CS)c2)c(=O)[nH]/c1=C\c1ccccc1 [Compound 64, (3Z,6Z)-6-Benzylidene-3-(3-mercaptomethylbenzylidene)-2,5-piperazinedione]						17	63	87	100	
COC(=O)CCCCOc1ccc(/C=c2\[nH]c(=O)/c(=C/c3ccccc3)[nH]c2=O)cc1 [Compound 96, 5-[4-((3Z,6Z)-6-Benzylidene-2,5-dioxopiperazin-3-ylidene)methylphenoxy]pentanoic acid, methyl ester]	47	75	77	29	5					
COc1ccc(/C=c2\[nH]c(=O)/c(=C/c3ccc(C(N)=O)cc3)[nH]c2=O)cc1 [Compound 80, 4-[(3Z,6Z)-6-(4-Methoxybenzylidene)-2,5-dioxopiperazin-3-ylidene]methylbenzamide]	1	9	53	0						
CN(C)CCCOc1ccc(/C=c2\[nH]c(=O)/c(=C/c3ccccc3)[nH]c2=O)cc1 [Compound 98]	74	71	72	67	4					
